Data reported in the supplement of paper PMC11208160.

Assay: recombinant UMI read abundance after kanamycin selection (control-corrected) (log10(CPM+1)); higher = more efficient recombination; extreme values may be limits of the assay; sequences stand for … in AGTGCAGAGAAAATCGGCCAGTTTTCTCTGCCTGCAGTCCGCATGCCGTGGGACCCCTTGGGTTCTAACCTGTTGCCTAGATTTATGCAGCGGACTGCCTTTCTCCCAAAGTGATAAACCGG…AGGTTGGTTTCACT; site = the 11-nt donor
Procedure, shortened: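 Counts of recombinant UMIs were reported as log10(CPM+1). Before that, they were converted to CPM, averaged over replicates and scaled using control-derived factors. They came from PCR across the donor–target junction after Escherichia coli carrying the pair library and target plasmid was plated on IPTG (0.07 mM) plus kanamycin, or unselected, in two replicates each.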
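Note: IS621 bridge recombinase in Escherichia coli cells against a fixed T5 target plasmid.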

Sequence | recombinant UMI read abundance (log10)
TGGCCGGCATGGACCGGTTTTCCCGGTAATCCGTATTTGGC (site TGGCCGGCTTC) | 0.00718
GTATGCACATGGACCGGTTTTCCCGGTAATCCGTATTTGTA (site GTATGCACTTC) | 0.0256
CCCGGCCCATGGACCGGTTTTCCCGGTAATCCGTATTTGTT (site CTCGGCCCTAA) | 0
GTGCATGCATGGACCGGTTTTCCCGGTAATCCGTATTTGGT (site GTGCATGCTAT) | 1.47
CCGCCACCATGGACCGGTTTTCCCGGTAATCCGTATTTGAT (site CCGCCACCTAT) | 0.00762
GTGGATGCATGGACCGGTTTTCCCGGTAATCCGTATTTGGT (site GTGGATGCTAC) | 2.2
TGGAATCCATGGACCGGTTTTCCCGGTAATCCGTATTTGTG (site CGGAATCCTAA) | 0.00353
TGGCCCGCATGGACCGGTTTTCCCGGTAATCCGTATTTGGC (site TGGCCAGCTGC) | 0
AGGAATACATGGACCGGTTTTCCCGGTAATCCGTATTTGCA (site AGGAATACTTG) | 2.11
TTAGCCGCATGGACCGGTTTTCCCGGTAATCCGTATTTGTG (site TTAGCTGCTCA) | 0.00693
AGATCGACATGGACCGGTTTTCCCGGTAATCCGTATTTGTT (site TGATCGACTAA) | 0.00951
CTCCTAACATGGACCGGTTTTCCCGGTAATCCGTATTTGGA (site CTTCTAACTTC) | 0.0149
CGTCCAACATGGACCGGTTTTCCCGGTAATCCGTATTTGTA (site GGTCCAACTTA) | 0.0127
CAATCATCATGGACCGGTTTTCCCGGTAATCCGTATTTGCT (site CTATCATCTAG) | 0.404
TCCACCGCATGGACCGGTTTTCCCGGTAATCCGTATTTGCC (site TCCACCGCTGG) | 0
GGATAGACATGGACCGGTTTTCCCGGTAATCCGTATTTGTC (site GGATAGACTGA) | 3.09
GTATGCACATGGACCGGTTTTCCCGGTAATCCGTATTTGTA (site GTATGCTCTTA) | 1.19
GTAGGTCCATGGACCGGTTTTCCCGGTAATCCGTATTTGAC (site GTAGGTACTGT) | 0
CCTGGTGCATGGACCGGTTTTCCCGGTAATCCGTATTTGAT (site CCGGGTGCTAT) | 0.00642
CGATCTACATGGACCGGTTTTCCCGGTAATCCGTATTTGTT (site CGATCGACTAA) | 0.00912
CTATCGACATGGACCGGTTTTCCCGGTAATCCGTATTTGTT (site CTATCGACTAA) | 1.1
GAGCTGACATGGACCGGTTTTCCCGGTAATCCGTATTTGAT (site GAGCTAACTAT) | 2.08
TGAGCTGCATGGACCGGTTTTCCCGGTAATCCGTATTTGTG (site TGAGCTGCTCA) | 0.639
GCTACTGCATGGACCGGTTTTCCCGGTAATCCGTATTTGAC (site GCTACTGCTGC) | 0
GATCTGCCATGGACCGGTTTTCCCGGTAATCCGTATTTGAT (site GATCTGCCTAT) | 0.0121

Sequence | recombinant UMI read abundance (log10)
CGGCATCCATGGACCGGTTTTCCCGGTAATCCGTATTTGTG (site CGGCATCCTCA) | 0.644
GATTAACCATGGACCGGTTTTCCCGGTAATCCGTATTTGCT (site GATTACCCTAG) | 0
AGCAAGACATGGACCGGTTTTCCCGGTAATCCGTATTTGGA (site AGGAAGACTTG) | 0
CCATCATCATGGACCGGTTTTCCCGGTAATCCGTATTTGCA (site CCATCATCTTG) | 0
GGATAGACATGGACCGGTTTTCCCGGTAATCCGTATTTGCC (site GGATAAACTGG) | 2.06
GTTAGAACATGGACCGGTTTTCCCGGTAATCCGTATTTGAC (site GTTAGAACTGA) | 0.0146
TCCGGGTCATGGACCGGTTTTCCCGGTAATCCGTATTTGTA (site TCCGGGTCTTA) | 0.413
GTTGCCTCATGGACCGGTTTTCCCGGTAATCCGTATTTGGA (site GTTGCCTCTTC) | 1.21
ACGAAGTCATGGACCGGTTTTCCCGGTAATCCGTATTTGGG (site ACGAAGTCTCC) | 0.574
ATGTAGGCATGGACCGGTTTTCCCGGTAATCCGTATTTGGC (site ACGTAGGCTGC) | 1.74
ACCTAGTCATGGACCGGTTTTCCCGGTAATCCGTATTTGGG (site ACCTAGGCTCC) | 0.0399
CTTCCTACATGGACCGGTTTTCCCGGTAATCCGTATTTGAG (site CTACCTACTCT) | 0.0179
TAGGAATCATGGACCGGTTTTCCCGGTAATCCGTATTTGCG (site TAGGAATCTCT) | 2.03
CGAAATTCATGGACCGGTTTTCCCGGTAATCCGTATTTGTT (site CGAAATTCTAA) | 0.945
GTGCATGCATGGACCGGTTTTCCCGGTAATCCGTATTTGGT (site GTGAATGCTAC) | 0
GCGCAGCCATGGACCGGTTTTCCCGGTAATCCGTATTTGGG (site GCGCAGCCTCC) | 0.00363
AGTGTAGCATGGACCGGTTTTCCCGGTAATCCGTATTTGGG (site AGTGTAGCTCC) | 0.00834
TCAGAGACATGGACCGGTTTTCCCGGTAATCCGTATTTGCC (site TCAGAGACTTG) | 1.62
GGATAGACATGGACCGGTTTTCCCGGTAATCCGTATTTGCC (site GGATAGACTGC) | 0
TGTTCCCCATGGACCGGTTTTCCCGGTAATCCGTATTTGTA (site TGATCCCCTTA) | 0.0165
TCTGTGGCATGGACCGGTTTTCCCGGTAATCCGTATTTGAC (site TCTGTGGCTGT) | 0
GTGCATGCATGGACCGGTTTTCCCGGTAATCCGTATTTGGA (site GTGCATGCTCC) | 0.296
ACTAGAACATGGACCGGTTTTCCCGGTAATCCGTATTTGAG (site ATTAGAACTCT) | 1.34
CGGCCGGCATGGACCGGTTTTCCCGGTAATCCGTATTTGGC (site CGGCCGGCTGC) | 1.21
CGGAATCCATGGACCGGTTTTCCCGGTAATCCGTATTTGCA (site CGGAATCCTTG) | 0.628

Sequence | recombinant UMI read abundance (log10)
TATTTGGCATGGACCGGTTTTCCCGGTAATCCGTATTTGTC (site TATTTGGCTCA) | 0.00726
CTTCGAGCATGGACCGGTTTTCCCGGTAATCCGTATTTGCA (site TTTCGAGCTTG) | 0
ATGTATACATGGACCGGTTTTCCCGGTAATCCGTATTTGCA (site ATGTATACTTG) | 2.39
TCACCCGCATGGACCGGTTTTCCCGGTAATCCGTATTTGGT (site TCACCCGCTAC) | 0.206
CTGGAGACATGGACCGGTTTTCCCGGTAATCCGTATTTGCA (site CTGGAGACTTG) | 2.66
TATTTGGCATGGACCGGTTTTCCCGGTAATCCGTATTTGTG (site TATTTGGCTCA) | 0.0246
TCAAAGACATGGACCGGTTTTCCCGGTAATCCGTATTTGCG (site TCAGAGACTCG) | 0.87
TTCATTACATGGACCGGTTTTCCCGGTAATCCGTATTTGAT (site TTCATTACTAT) | 0
AAGCACGCATGGACCGGTTTTCCCGGTAATCCGTATTTGGG (site AAGTACGCTCC) | 0.0168
AGGACTACATGGACCGGTTTTCCCGGTAATCCGTATTTGCC (site AGGACTACTGT) | 0
GGGAAGACATGGACCGGTTTTCCCGGTAATCCGTATTTGGT (site GGGAAGACTAC) | 0.836
GCTTCTGCATGGACCGGTTTTCCCGGTAATCCGTATTTGCC (site GCTACTGCTGG) | 0.647
CGATCGTCATGGACCGGTTTTCCCGGTAATCCGTATTTGCT (site CGATCCTCTAG) | 0
GCCACGCCATGGACCGGTTTTCCCGGTAATCCGTATTTGTA (site GCCACGCCTAA) | 0.0376
AGCCTTTCATGGACCGGTTTTCCCGGTAATCCGTATTTGAT (site AGCCTTTCTAT) | 0
TAGTATACATGGACCGGTTTTCCCGGTAATCCGTATTTGAC (site TAGTATACTGT) | 2.58
CGATCCTCATGGACCGGTTTTCCCGGTAATCCGTATTTGCT (site CGATCTTCTAG) | 0
CCACACACATGGACCGGTTTTCCCGGTAATCCGTATTTGTA (site CCACACACTTA) | 1.15
CGGACATCATGGACCGGTTTTCCCGGTAATCCGTATTTGGT (site CGGACATCTAC) | 2.13
TCGCCGCCATGGACCGGTTTTCCCGGTAATCCGTATTTGGG (site TCGCCGCCTCC) | 0.00807
TCCAACTCATGGACCGGTTTTCCCGGTAATCCGTATTTGCC (site TCCAACTCTGG) | 0
CGGGGACCATGGACCGGTTTTCCCGGTAATCCGTATTTGGG (site CGGGGACCTCC) | 0.0134
AGGCCGACATGGACCGGTTTTCCCGGTAATCCGTATTTGCA (site AGGCCGACTTG) | 1.81
CGAGTATCATGGACCGGTTTTCCCGGTAATCCGTATTTGCA (site CGAGTATCTTG) | 3
GATTTGGCATGGACCGGTTTTCCCGGTAATCCGTATTTGTG (site GATTTGGCTCA) | 0.152
